Results as given in patent US20260098017A1, “NOVEL AROMATIC RING DERIVATIVE CONTAINING AMIDE SUBSTITUTION AND USE THEREOF” (TIANJIN PHARMACEUTICAL BIOTECHNOLOGY CO., LTD., priority 2022, published 2026).
Blank lines part the entries; values can stand above or below the molecule they belong to.

Target: Ba/F3 cell line expressing TYK2 (Homo sapiens, UniProt P29597, cells depend on it, form not given)
Assay: In vitro cellular inhibition assay (Ba/F3 cell proliferation, CellTiter-Glo)
Type: cell-based
Conditions: read-out: IC50 (the source's name)
Protocol: The inhibitory effect of the compounds of formula (I) according to the present invention on the TYK2 signaling pathway in cells was assessed using the following method:
Instrumentation: SpectraMax Paradigm reader.
Method: in this experiment, a Ba/F3 cell line expressing TYK2 was employed to assess the effect of the compounds on cell proliferation inhibition by measuring their effects on cell activity in vitro.
Procedure: a CellTiter-Glo buffer was thawed and placed aside till room temperature. A CellTiter-Glo substrate was placed aside till room temperature and dissolved with the buffer to prepare a CellTiter-Glo working solution. To a 96-well flat bottom transparent drug plate, 98 μL of cell culture medium and 2 μL of gradient diluted compound solution were added. The drug plate was placed aside for 10 min, and then 50 μL of the CellTiter-Glo working solution was added. The drug plate was subsequently shaken on an orbital shaker for 2 min and placed aside at room temperature for an additional 10 min. Finally, the luminescence signal was measured on the SpectraMax Paradigm reader.
Data Analysis: the cell proliferation inhibition rate data were processed using the following formula:
Inhibition Rate (Inh %)=100−(RLUDrug−RLUMin)/(RLUMax−RLUMin)×100%.
The inhibition rates of compounds with different concentrations were calculated in EXCEL, and then GraphPad Prism software was employed to plot inhibition rate curve and calculate relevant parameters, including maximum and minimum cell inhibition rates, IC50 values.

SMILES: [2H]C([2H])([2H])NC(=O)c1cnc(NC(=O)C2CC2)cc1Nc1cccc(C(=O)Nc2ccc(F)c(C)c2)c1OC [Example 84]
GI50: 5 to 10 nM

SMILES: [2H]C([2H])([2H])NC(=O)c1cnc(NC(=O)C2CC2)cc1Nc1cccc(C(=O)NC(C)(C)C)c1OC [Example 106]
GI50: 5 to 10 nM

SMILES: [2H]C([2H])([2H])NC(=O)c1nnc(NC(=O)C2CC2)cc1Nc1cccc(C(=O)Nc2cccc(C(F)(F)F)c2)c1OC [Example 12]
GI50: 5 to 10 nM

SMILES: [2H]C([2H])([2H])NC(=O)c1nnc(NC(=O)C2CC2)cc1Nc1cccc(C(=O)Nc2ccc(C(C)(C)C)c(C)c2)c1OC [Example 28]
GI50: 5 to 10 nM

SMILES: [2H]C([2H])([2H])NC(=O)c1nnc(NC(=O)C2CC2)cc1Nc1cccc(C(=O)Nc2ccc(C(F)(F)F)c(C)c2)c1OC [Example 29]
GI50: 5 to 10 nM

SMILES: [2H]C([2H])([2H])NC(=O)c1nnc(NC(=O)C2CC2)cc1Nc1cccc(C(=O)Nc2ncc(C)cn2)c1OC [Example 45]
GI50: 5 to 10 nM

SMILES: [2H]C([2H])([2H])NC(=O)c1nnc(NC(=O)C2CC2)cc1Nc1cccc(C(=O)Nc2ccc(C(C)C)cc2)c1OC [Example 20]
GI50: 5 to 10 nM

SMILES: [2H]C([2H])([2H])NC(=O)c1nnc(NC(=O)C2CC2)cc1Nc1cccc(C(=O)Nc2ccc(C(F)(F)F)cc2)c1OC [Example 22]
GI50: 5 to 10 nM

SMILES: [2H]C([2H])([2H])NC(=O)c1nnc(NC(=O)C2CC2)cc1Nc1cccc(C(=O)Nc2cc(C)ccn2)c1OC [Example 37]
GI50: 5 to 10 nM

SMILES: [2H]C([2H])([2H])NC(=O)c1nnc(NC(=O)C2CC2)cc1Nc1cccc(C(=O)Nc2ccccc2C)c1OC [Example 10]
GI50: 5 to 10 nM

SMILES: [2H]C([2H])([2H])NC(=O)c1cnc(NC(=O)C2CC2)cc1Nc1cccc(C(=O)Nc2ccn(C)n2)c1OC [Example 85]
GI50: 5 to 10 nM

SMILES: [2H]C([2H])([2H])NC(=O)c1nnc(NC(=O)C2CC2)cc1Nc1cccc(C(=O)Nc2cn(C)cn2)c1OC [Example 35]
GI50: 5 to 10 nM

SMILES: [2H]C([2H])([2H])NC(=O)c1cnc(NC(=O)C2CC2)cc1Nc1cccc(C(=O)Nc2cccc(C(F)(F)F)c2)c1OC [Example 64]
GI50: 5 to 10 nM

Results, then the molecule that gave them:

GI50: 5 to 10 nM
SMILES: [2H]C([2H])([2H])NC(=O)c1nnc(NC(=O)C2CC2)cc1Nc1cccc(C(=O)Nc2cccc(C(C)(C)C)c2)c1OC [Example 17]

GI50: 5 to 10 nM
SMILES: [2H]C([2H])([2H])NC(=O)c1cnc(NC(=O)C2CC2)cc1Nc1cccc(C(=O)Nc2cccc(F)c2)c1OC [Example 58]

GI50: 5 to 10 nM
SMILES: [2H]C([2H])([2H])NC(=O)c1cnc(NC(=O)C2CC2)cc1Nc1cccc(C(=O)Nc2ncccn2)c1OC [Example 103]

GI50: 5 to 10 nM
SMILES: [2H]C([2H])([2H])NC(=O)c1cnc(NC(=O)C2CC2)cc1Nc1cccc(C(=O)Nc2ccc(C#N)cc2)c1OC [Example 75]

GI50: 5 to 10 nM
SMILES: [2H]C([2H])([2H])NC(=O)c1cnc(NC(=O)C2CC2)cc1Nc1cccc(C(=O)Nc2cc(C)ccn2)c1OC [Example 92]

GI50: 5 to 10 nM
SMILES: [2H]C([2H])([2H])NC(=O)c1nnc(NC(=O)C2CC2)cc1Nc1cccc(C(=O)Nc2ccncc2)c1OC [Example 50]

GI50: 5 to 10 nM
SMILES: [2H]C([2H])([2H])NC(=O)c1nnc(NC(=O)C2CC2)cc1Nc1cccc(C(=O)Nc2ccc(OC)c(C)c2)c1OC [Example 31]

GI50: 5 to 10 nM
SMILES: [2H]C([2H])([2H])NC(=O)c1cnc(NC(=O)C2CC2)cc1Nc1cccc(C(=O)Nc2ncc(C)cn2)c1OC [Example 97]

GI50: 5 to 10 nM
SMILES: [2H]C([2H])([2H])NC(=O)c1nnc(NC(=O)C2CC2)cc1Nc1cccc(C(=O)Nc2ccc(CC)cc2)c1OC [Example 18]

GI50: 5 to 10 nM
SMILES: [2H]C([2H])([2H])NC(=O)c1nnc(NC(=O)C2CC2)cc1Nc1cccc(C(=O)Nc2ccnc(C)c2)c1OC [Example 39]

GI50: 5 to 10 nM
SMILES: [2H]C([2H])([2H])NC(=O)c1cnc(NC(=O)C2CC2)cc1Nc1cccc(C(=O)Nc2ccc(C#N)c(C)c2)c1OC [Example 82]

GI50: 5 to 10 nM
SMILES: [2H]C([2H])([2H])NC(=O)c1nnc(NC(=O)C2CC2)cc1Nc1cccc(C(=O)Nc2cccc(C(C)C)c2)c1OC [Example 16]
